According to patent US20140094493A1, “Novel Ether Linked Compounds and Improved Treatments for Cardiac and Cardiovascular Disease” (priority 2011, published 2014):
Where a name gives a salt, the structure may show the parent alone.

Tests used:
human beta1-adrenoceptor = biological target: T1, human beta1-adrenoceptor (Homo sapiens, UniProt P08588); test: 3H-CGP12177 whole-cell binding, beta1; details: for Kd / Beta 1 Log KD: 3H-CGP 12177 whole cell binding, CHO cells expressing human beta1-adrenoceptor, logarithmic value; for Kd: read-out: Beta 1 Log KD (converted); for Beta 1-Beta 2 Log KD (selectivity): difference of Log KD beta1 and beta2, 1 = 10-fold, 2 = 100-fold, 3 = 1000-fold selectivity
T1 construct: expressed in transfected cells; host or cells: CHO cells
T1 sequence (P08588 whole entry): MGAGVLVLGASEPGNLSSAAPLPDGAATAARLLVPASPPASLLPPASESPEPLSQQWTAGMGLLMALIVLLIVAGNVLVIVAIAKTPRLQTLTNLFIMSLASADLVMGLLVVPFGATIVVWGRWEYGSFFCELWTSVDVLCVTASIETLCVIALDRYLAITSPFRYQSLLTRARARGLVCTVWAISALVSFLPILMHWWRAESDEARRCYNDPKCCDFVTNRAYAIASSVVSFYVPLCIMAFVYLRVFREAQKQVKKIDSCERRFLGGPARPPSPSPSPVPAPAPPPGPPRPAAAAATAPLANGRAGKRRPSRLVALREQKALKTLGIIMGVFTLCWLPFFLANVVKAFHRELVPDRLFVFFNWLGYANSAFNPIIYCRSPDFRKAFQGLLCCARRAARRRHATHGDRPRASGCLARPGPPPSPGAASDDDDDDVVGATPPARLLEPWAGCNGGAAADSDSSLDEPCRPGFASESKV
Description: (§1) Selectivity of ligands for the three beta-adrenoceptors was assessed by whole-cell binding studies using ^3H-CGP12177 in CHO cells expressing the human beta1, beta2 or beta3-adrenoceptors respectively essentially as described by Baker (2005; Br. J Pharmacol: 144, 317-22) Values shown are KD values determined as described by Baker (2005). KD represents the concentration of compound required to occupy 50% of the receptors in cells or tissues.
(§2) The selectivity of a ligand is given by the ratio of beta-1 to beta-2 KD. Accordingly a difference of one in the logarithmic values thereof represents a 10-fold selectivity, a difference of 2 represents 100-fold selectivity and a difference of 3 represents 1000-fold selectivity etc.

human beta2-adrenoceptor = biological target: T2, human beta2-adrenoceptor (Homo sapiens, UniProt P07550); test: 3H-CGP12177 whole-cell binding, beta2; details: 3H-CGP 12177 whole cell binding, CHO cells expressing human beta2-adrenoceptor, logarithmic value; for Kd: read-out: Beta 2 Log KD (converted)
T2 construct: expressed in transfected cells; host or cells: CHO cells
T2 sequence (P07550 whole entry): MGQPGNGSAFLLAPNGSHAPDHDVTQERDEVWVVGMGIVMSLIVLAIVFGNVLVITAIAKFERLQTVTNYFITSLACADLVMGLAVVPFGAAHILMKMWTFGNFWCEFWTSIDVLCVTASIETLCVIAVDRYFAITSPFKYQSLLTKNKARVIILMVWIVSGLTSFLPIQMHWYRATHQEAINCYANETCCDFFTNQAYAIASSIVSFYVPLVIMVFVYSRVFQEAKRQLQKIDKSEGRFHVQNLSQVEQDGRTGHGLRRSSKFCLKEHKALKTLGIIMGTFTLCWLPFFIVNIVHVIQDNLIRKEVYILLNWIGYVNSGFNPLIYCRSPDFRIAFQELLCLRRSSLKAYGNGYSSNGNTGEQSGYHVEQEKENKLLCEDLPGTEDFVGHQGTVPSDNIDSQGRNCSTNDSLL
Description: as §1, §2

β1-adrenoceptor = β1-adrenoceptor (Homo sapiens, UniProt P08588); details: background statement on known compounds; cited from earlier work
Chain of β1-adrenoceptor (P08588 whole entry, species assumed): as the sequence (P08588 whole entry) above

| Compound | melting point | Kd (human beta1-adrenoceptor) | Beta 1-Beta 2 Log KD (selectivity) (human beta1-adrenoceptor) | Kd (human beta2-adrenoceptor) | Beta 1 Log KD (human beta1-adrenoceptor) | Beta 2 Log KD (human beta2-adrenoceptor) | β1-selectivity (β1-adrenoceptor) |
| --- | --- | --- | --- | --- | --- | --- | --- |
| NC(=O)c1ccc(OCCNC[C@H](O)COc2ccc(CCCN3CCC(F)(F)CC3)cc2)cc1 (as salt: hydrochloride) [Example 41, (S)-4-(2-(3-(4-(3-(4,4-difluoropiperidin-1-yl)propyl)phenoxy)-2-hydroxypropyl)amino)-ethoxy)benzamide dihydrochloride] | 234 to 235 °C |  |  |  |  |  |  |
| COc1ccc(OCCNCC(O)COc2ccc(OCCOC3CCCC3)cc2)cc1 (racemic) [Example 3] |  | 0.00741 µM | 2.01 | 0.759 µM |  |  |  |
| NC(=O)c1ccc(OCCNCC(O)COc2ccc(OCCOC3CCCC3)cc2)cc1 (centres unmarked) [Example 1] |  |  | 2.40 |  |  |  |  |
| CN(C)C(=O)c1ccc(OCCNC[C@H](O)COc2ccc(OCCOC3CCCC3)cc2)cc1 [Example 6] | 73 to 75 °C | 0.0115 µM | 1.96 | 1.05 µM |  |  |  |
| NC(=O)c1ccc(OCCNC[C@H](O)COc2ccc(CCCOCC3CC3)cc2)cc1 [Example 8] | 132 to 135 °C | 0.00288 µM | 2.66 | 1.32 µM |  |  |  |
| NC(=O)c1ccc(OCCNC[C@H](O)COc2ccc(CCCOC3CCCC3)cc2)cc1 [Example 9] | 120 to 122 °C | 0.000912 µM | 2.59 | 0.355 µM |  |  |  |
| NC(=O)c1ccc(OCCNC[C@H](O)COc2ccc3c(c2)OC[C@@H](COCC2CC2)O3)cc1 [Example 11] | 136 to 138 °C | 0.0234 µM | 2.64 | 10.2 µM |  |  |  |
| O[C@@H](CNCCOc1ccc2ncccc2c1)COc1ccc(CCCOCC2CC2)cc1 [Example 12] | 128 to 130 °C | 0.000832 µM | 2.22 | 0.138 µM |  |  |  |
| CC(=O)Nc1ccc(OCCNC[C@H](O)COc2ccc(CCCOCC3CC3)cc2)cc1 [Example 13] |  |  | 2.3 |  | −8.83 | −6.53 |  |
| O[C@@H](CNCCOc1ccc2ncccc2c1)COc1ccc2c(c1)OC[C@@H](COCC1CC1)O2 [Example 14] |  | 0.00417 µM | 2.48 | 1.26 µM |  |  |  |
| CC(=O)Nc1ccc(OCCNC[C@H](O)COc2ccc3c(c2)OC[C@@H](COCC2CC2)O3)cc1 [Example 15] | 123 to 125 °C | 0.00759 µM | 2.76 | 4.37 µM |  |  |  |
| NC(=O)c1ccc(OCCNC[C@H](O)COc2ccc3c(c2)OC[C@@H](COC2CCCC2)O3)cc1 [Example 16] | 134 to 136 °C | 0.00617 µM | 2.91 | 5.01 µM |  |  |  |
| O=C1NCc2cc(OCCNC[C@H](O)COc3ccc4c(c3)OC[C@@H](COCC3CC3)O4)ccc21 [Example 18] |  | 0.00457 µM | 3.01 | 4.68 µM |  |  |  |
| NC(=O)c1ccc(OCCNC[C@H](O)COc2ccc(CCOCC3CC3)cc2)cc1 [Example 20] |  |  | 2.28 |  | −8.99 | −6.71 |  |
| O[C@@H](CNCCOc1ccc2nccnc2c1)COc1ccc(CCCOCC2CC2)cc1 [Example 21] |  | 0.00275 µM | 2.19 | 0.427 µM |  |  |  |
| O=c1[nH]c2ccc(OCCNC[C@H](O)COc3ccc(CCCOCC4CC4)cc3)cc2[nH]1 [Example 22] | 183 to 185 °C | 0.00832 µM | 2.23 | 1.41 µM |  |  |  |
| O=C1NCc2cc(OCCNC[C@H](O)COc3ccc4c(c3)OC[C@@H](COc3ccc(F)cc3)O4)ccc21 [Example 25] |  | 0.000794 µM | 2.64 | 0.347 µM |  |  |  |
| O=C1NCc2cc(OCCNC[C@H](O)COc3ccc4c(c3)OC[C@H](COc3ccc(F)cc3)O4)ccc21 [Example 26] | 161 to 164 °C | 0.00417 µM | 2.78 | 2.51 µM |  |  |  |

| Compound | melting point | Kd (human beta1-adrenoceptor) | Beta 1-Beta 2 Log KD (selectivity) (human beta1-adrenoceptor) | Kd (human beta2-adrenoceptor) | Beta 1 Log KD (human beta1-adrenoceptor) | Beta 2 Log KD (human beta2-adrenoceptor) | β1-selectivity (β1-adrenoceptor) |
| --- | --- | --- | --- | --- | --- | --- | --- |
| NC(=O)c1ccc(OCCNC[C@H](O)COc2ccc3cc(COCC4CC4)ccc3c2)cc1 [Example 28] | 148 to 150 °C | 0.117 µM | <2.93 | > 100 µM |  |  |  |
| O=C1NCc2cc(OCCNC[C@H](O)COc3ccc4cc(OCC5CC5)ccc4c3)ccc21 [Example 29] | 194 to 196 °C | 0.0794 µM | <3.10 | > 100 µM |  |  |  |
| O=C1NCc2cc(OCCNC[C@H](O)COc3ccc4c(c3)OC[C@@H](COc3ccncc3)O4)ccc21 [Example 30] | 192 to 194 °C | 0.0575 µM | 3.10 | 72.4 µM |  |  |  |
| O=C1NCc2cc(OCCNC[C@H](O)COc3ccc4c(c3)OC[C@@H](COc3cccc(F)c3)O4)ccc21 [Example 33] |  | 0.00282 µM | 2.85 | 2 µM |  |  |  |
| O=C1NCc2cc(OCCNC[C@H](O)COc3ccc4c(c3)OC[C@@H](COc3ccc(OC(F)(F)F)cc3)O4)ccc21 [Example 34] | 188 to 189 °C | 0.00339 µM | 3.37 | 7.76 µM |  |  |  |
| O=C1NCc2cc(OCCNC[C@H](O)COc3ccc4c(c3)OC[C@@H](COc3ccccc3F)O4)ccc21 [Example 35] |  |  | 3.70 |  | −8.68 | −4.98 |  |
| COc1c(F)cc(OC[C@@H]2COc3cc(OC[C@@H](O)CNCCOc4ccc5c(c4)CNC5=O)ccc3O2)cc1F [Example 37] | 182 to 184 °C | 0.00269 µM | 3.37 | 6.31 µM |  |  |  |
| O=C1NCc2cc(OCCNC[C@H](O)COc3ccc4c(c3)OC[C@@H](COc3c(F)cccc3F)O4)ccc21 [Example 38] |  |  | 3.34 |  | −8.54 | −5.20 |  |
| Cc1ccccc1OC[C@@H]1COc2cc(OC[C@@H](O)CNCCOc3ccc4c(c3)CNC4=O)ccc2O1 [Example 39] | 146 to 148 °C | 0.00107 µM | 2.91 | 0.871 µM |  |  |  |
| COc1ccc(OCC2COc3cc(OCC(O)CNCCOc4ccc5c(c4)CNC5=O)ccc3O2)c(F)c1 (centres unmarked) [Example 40] | 145 to 147 °C | 0.00324 µM | 2.70 | 1.62 µM |  |  |  |
| NC(=O)c1ccc(OCCNC[C@H](O)COc2ccc(CCCN3CCC(F)(F)CC3)cc2)cc1 [Example 41, (S)-4-(2-(3-(4-(3-(4,4-difluoropiperidin-1-yl)propyl)phenoxy)-2-hydroxypropyl)amino)-ethoxy)benzamide dihydrochloride] |  | 0.00182 µM | 2.87 | 1.35 µM |  |  |  |
| O=C1NCc2cc(OCCNC[C@H](O)COc3ccc(CCCN4CCC(F)(F)CC4)cc3)ccc21 [Example 42] | 132 to 133 °C | 0.00195 µM | 2.32 | 0.407 µM |  |  |  |
| O=C1NCc2cc(OCCNC[C@H](O)COc3ccc4c(c3)OC[C@@H](CN3CCC(F)(F)CC3)O4)ccc21 [Example 43, 5-(2-((S)-3-((R)-2-((4,4-difluoropiperidin-1-yl)methyl)-2,3-dihydrobenzo[b][1,4]-dioxin-6-yloxy)-2-hydroxypropylamino)ethoxy)isoindolin-1-one] | 134 to 135 °C | 0.00427 µM | 2.81 | 2.75 µM |  |  |  |
| CC1(C)COc2cc(OC[C@@H](O)CNCCOc3ccc(C(N)=O)cc3)ccc2O1 [Example 44, (S)-4-(2-(3-(2,2-dimethyl-2,3-dihydrobenzo[b][1,4]dioxin-6-yloxy)-2-hydroxypropyl-amino)ethoxy)benzamide] | 101 to 103 °C | 0.316 µM | <2.50 | > 100 µM |  |  |  |
| O=C1NCc2cc(OCCNC[C@H](O)COc3ccc(CCCOC4CC4)cc3)ccc21 [Example 45] |  |  | 2.65 |  | −9.17 | −6.52 |  |
| NC(=O)c1ccc(OCCNC[C@H](O)COc2ccc(CCCOC3CC3)cc2)cc1 [Example 46] |  |  | 2.57 |  | −8.67 | −6.10 |  |
| CCOCCOc1ccc(OC[C@@H](O)CNCCc2ccc(OC)c(OC)c2)cc1 [Example D-140S] |  |  |  |  |  |  | 4,400 fold |
| N#Cc1cc(OCCOCC2CC2)ccc1OCC(O)CNCCNC(=O)Nc1ccc(O)cc1 (centres unmarked) [LK-204545] |  |  |  |  |  |  | 1,778 fold |
